Molecules are shown by their SMILES. In brackets after ≈: the same amount, converted by molar mass. A value given as a limit tells only on which side of the number the result lay.

Data on two molecules can be found in ChEMBL document CHEMBL4402556, “Mycobacterium tuberculosis Decaprenylphosphoryl-β-d-ribose Oxidase Inhibitors: Expeditious Reconstruction of Suboptimal Hits into a Series with Potent in Vivo Activity” (J Med Chem, 2020).

Data set [1] can be described thus: Inhibition of Mycobacterium tuberculosis DprE1 expressed in Escherichia coli BL21 (DE3) using farnesylphosphoryl-beta-D-ribose as substrate.
Data set [2] relates to HepG2. Put plainly: Cytotoxicity against human HepG2 cells assessed as reduction in cell viability measured after 48 hrs by CellTiter-Glo assay. It counts as cell-based. As to conditions: HepG2, 48 h. Background: ATP-based viability assays read luminescence as a measure of living cells.
Data set [3] concerns Mycobacterium tuberculosis. Description: Antitubercular activity against Mycobacterium tuberculosis H37Rv infected in po dosed C57BL/6 mouse model of acute infection assessed as effect on mycobacterial burden in lung pretreated with CYP inhibitor ABT 2 hrs prior followed by compound administration for 8 consecutive days starting from day 1 post-infection and measured after 24 hrs post-last dose. It counts as functional.

Data set [4] has as its system Mycobacterium tuberculosis. Description: Antibacterial activity against Mycobacterium tuberculosis transfected with pMV261 vector expressing DprE1 assessed as bacterial growth inhibition. It is filed as functional.
Data set [5] has as its system Mycobacterium tuberculosis. Description: Antitubercular activity against Mycobacterium tuberculosis H37Rv infected in po dosed C57BL/6 mouse model of acute infection assessed as reduction in mycobacterial burden in lung administration for 8 consecutive days starting from day 1 post-infection and measured after 24 hrs post-last dose. It is filed as functional.
Data set [6] relates to Mycobacterium tuberculosis. Description: Antitubercular activity against wild type Mycobacterium tuberculosis H37Rv ATCC 25618 assessed as bacterial growth inhibition measured after 6 days by resazurin assay. It counts as functional. As to conditions: H37Rv ATCC 25618, 144 h. Background: Resazurin is reduced to fluorescent resorufin, in cell work by metabolically active cells.

Data set [7] is described as follows: Kinetic aqueous solubility of the compound in phosphate buffer saline at pH 7.4 after 1 hr by CLND method. It counts as physicochemical. The settings on record: phosphate buffered saline, read-out: Kinetic_solubility.
For data set [8], the system named is Mycobacterium tuberculosis. Put plainly: Antitubercular activity against wild type Mycobacterium tuberculosis H37Rv ATCC 25618 transfected with pATB45luc plasmid expressing luciferase infected in human THP1 cells assessed as reduction in bacterial growth after 4 days by BrightGlo luciferase assay. It counts as functional. The settings on record: H37Rv ATCC 25618, 96 h.

Data set [9] relates to Mycobacterium tuberculosis. Description: Antitubercular activity against Mycobacterium tuberculosis H37Rv infected in C57BL/6 mouse model of acute infection assessed as reduction in mycobacterial burden in lung at 100 mg/kg, po treated for 8 consecutive days starting from day 1 post-infection and measured after 24 hrs post-last dose (reference value: 5.8 log10cfu). It counts as functional.

Regarding `COc1ncnc(Cn2cc(C(=O)NCCF)c3ncccc32)c1C`, the pIC50 in data set [1] amounted to 7.4. Also, the IC50 in [2] was over 100 µM. Besides, the ED99 is 11 mg/kg in [3] and 164 mg/kg in data set [5]. Also, the MIC90 in data set [4] was over 125 µM; in [6], 4 µM (≈ 1.37 µg/mL); in [8] it was 0.62 µM (≈ 0.213 µg/mL). Moreover, in data set [7], the solubility kinetic at 1 h amounted to 26 µM (≈ 8.93 µg/mL).

Turning to `COc1c(N2C[C@@H]3CCCN[C@@H]3C2)c(F)cc2c(=O)c(C(=O)O)cn(C3CC3)c12` [MOXIFLOXACIN], the Activity in data set [9] was found to be 2.7 log10CFU.

By pIC50 is commonly meant the negative decadic logarithm of the IC50, by convention in mol/L. A higher pIC50 goes with a low IC50. A word on the IC50: it is the concentration that inhibits the measured activity by half. What is called MIC90 is the lowest concentration that inhibits either 90% of growth or 90% of the strains tested, depending on the study.
